For series [1], the system named is cancer cells by cancer type. Particulars: read-out: EC50 of Chemo SOC, cited from earlier work.
For series [2], the target named is T1, ALKBH5 (Homo sapiens (Human), UniProt Q6P6C2). Put plainly: Fluorescence enzymatic inhibition assay (m6A7-Broccoli RNA / DFHBI-1T) against ALKBH5. It is filed as biochemical. Particulars: for IC50: m6A7-Broccoli fluorescence assay, 0.250 μM ALKBH5, read-out: Enzymatic IC50 ALKBH5. The method, then: (§1) Inhibitors were added in concentrations ranging from 0.008-40 μM; all inhibitors were dissolved in DMSO and added to a final concentration of 0.2% DMSO. […] After incubation at room temperature for 2 hours, the plates were left at 4° C. overnight (16 hours) to allow DFHBI-1T to bind to A7-Broccoli RNA. […] Sigmoidal dose-response curves were fitted in GraphPad Prism 6. All assays were performed in triplicate, with additional repetitions added as necessary.

In series [3] the target is FTO (Homo sapiens (Human), UniProt Q9C0B1). As to the kind of experiment: Fluorescence enzymatic inhibition assay (m6A7-Broccoli RNA / DFHBI-1T) against FTO. It is filed as biochemical. Particulars: for selectivity between FTO and ALKBH5: comparison of enzymatic IC50 values; for IC50: m6A7-Broccoli fluorescence assay, 0.250 μM FTO, inhibitor up to 40 μM, triplicate, read-out: Enzymatic IC50 FTO. The protocol: In order to determine their efficacy as FTO inhibitors, the compounds were screened by a fluorescence enzymatic inhibition assay developed previously by the Jaffrey lab.^44 Briefly, a nonfluorescent methylated RNA substrate termed “m6A7-Broccoli” is incubated with FTO in the presence of 2-oxoglutarate (300 μM), (NH4)2Fe(SO4)2·6H2O (300 μM), and L-ascorbate (2 mM) for 2 hours at room temperature in reaction buffer (50 mM NaHEPES, pH 6).
as §1

In series [4] the target is T1, ALKBH5. Particulars: reported from Huang et. al 2019; read-out: Enzymatic IC50 ALKBH5; cited from earlier work.
The test system of series [5] is TS576 glioblastoma stem cells. As to the kind of experiment: Neurosphere (tumorosphere) formation assay, TS576. The format is cell-based, human. Particulars: TS576, 30 μM inhibitor, 2 days, vs vehicle control. The protocol:
To understand the effects of our FTO inhibitors on the self-renewal properties of GSCs, tumorospheres cultured from the patient-derived GSC line TS576 were treated with 30 μM of FTO-04, FTO-10, FTO-11, or FTO-12 (FIG. 4-3AB; cell line gifted from the Furnari lab)^0.45, 46 The GSCs were cultured in sphere-forming assays for 24 hours, then treated with either inhibitors or DMSO control for 2 days. The size of the tumorospheres was calculated using ImageJ.
Early passaged GSCs were used to understand the efficacy of ALK-04 on the self-renewal capacity of GSCs by tumorsphere-formation assay as described earlier^10, 11. In brief, GSCs were seeded at 4×10^4 cells in 24 well plate and cultured for 3 days followed by treatment with ALK-04 inhibitors at 20 μM daily for 3 days. After 3 days of treatment the images of the tumorospheres were imaged with phase contrast microscope and size was measured with Image J, to understand the effects of drugs on the self-renewal of GSCs on sphere formation. This process was also repeated for healthy neural stem cells (hNSCs) treated daily with 20 μM ALK-04 for three days to assess the therapeutic ratio.

Usually EC50 stands for the concentration at which the effect is half-maximal. One may read the IC50 as the concentration that inhibits the measured activity by half. The term melting point denotes the temperature, or range, at which the solid turns liquid.

Molecules are shown by their SMILES. “And” between values parts separate entries of the source, which are not always exact repeats. Equal values may be shown once. Read-outs that look alike come from different tables or passages of the source.

Sequence of FTO (Q9C0B1 whole entry): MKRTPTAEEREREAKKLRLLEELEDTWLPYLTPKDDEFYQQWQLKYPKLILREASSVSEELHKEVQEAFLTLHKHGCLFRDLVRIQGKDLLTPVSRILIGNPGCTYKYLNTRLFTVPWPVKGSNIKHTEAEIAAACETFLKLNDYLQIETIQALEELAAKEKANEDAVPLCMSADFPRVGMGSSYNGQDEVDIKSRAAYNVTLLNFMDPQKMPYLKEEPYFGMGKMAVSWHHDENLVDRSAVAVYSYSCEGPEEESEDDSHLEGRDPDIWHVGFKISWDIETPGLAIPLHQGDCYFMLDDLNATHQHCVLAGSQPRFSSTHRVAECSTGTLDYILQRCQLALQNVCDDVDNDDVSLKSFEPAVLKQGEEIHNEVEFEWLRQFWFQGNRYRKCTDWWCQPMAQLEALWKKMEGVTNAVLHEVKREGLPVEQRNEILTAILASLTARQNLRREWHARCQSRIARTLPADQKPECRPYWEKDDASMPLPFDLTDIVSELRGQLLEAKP
T1 sequence (Q6P6C2 whole entry): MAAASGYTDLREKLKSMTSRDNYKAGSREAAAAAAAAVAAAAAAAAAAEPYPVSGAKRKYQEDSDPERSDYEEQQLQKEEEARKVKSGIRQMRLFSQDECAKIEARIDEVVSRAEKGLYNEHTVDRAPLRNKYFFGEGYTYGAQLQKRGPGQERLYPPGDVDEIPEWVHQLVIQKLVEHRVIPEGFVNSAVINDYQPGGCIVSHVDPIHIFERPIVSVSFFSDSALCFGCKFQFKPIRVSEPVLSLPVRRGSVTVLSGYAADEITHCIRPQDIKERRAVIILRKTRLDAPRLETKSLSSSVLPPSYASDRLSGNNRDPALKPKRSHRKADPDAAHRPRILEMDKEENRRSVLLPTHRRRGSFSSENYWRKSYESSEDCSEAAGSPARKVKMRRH

Take `O=C(c1cc(Cc2n[nH]c(=O)c3ccccc23)ccc1F)N1CCN(C(=O)C2CC2)CC1` [Olaparib]: the EC50 in series [1] (Breast) was 30 µM.
The molecule `COc1ccc2cc(-c3cncnc3)ccc2c1` [FTO-5, 5-(6-methoxynaphthalen-2-yl)pyrimidine] yielded a melting point of 230 °C. Further, in series [2], the “inhibition of ALKBH5 at the highest concentration measured” value (from here on “inhibition of ALKBH5”) is “no measurable inhibition” and the concentration for half-maximal inhibition (IC50) is greater than 40 µM. In series [3], the “selectivity between FTO and ALKBH5” value is listed as “five-fold or higher”; the IC50 came to 13.4 ± 2.3 µM.
The molecule `COCCNc1ncc(-c2ccc(CO)c(OC)c2)cn1` [FTO-20, (2-methoxy-4-(2-((2-methoxyethyl)amino)pyrimidin-5-yl)phenyl)methanol] showed a melting point of 230 °C. Moreover, the IC50 in series [2] amounted to 90.2 ± 7.8 µM. In series [3], the “selectivity between FTO and ALKBH5” value is recorded as “five-fold or higher”; the IC50 was determined as 17.2 ± 2.9 µM.
`COCCNc1ncc(-c2ccc(OCc3ccccc3)cc2)cn1` [FTO-18, 5-(4-(benzyloxy)phenyl)-N-(2-methoxyethyl)pyrimidin-2-amine] yielded a melting point of 230 °C. For the same molecule, in series [2], the “inhibition of ALKBH5” value is given as “no measurable inhibition” and the 50% inhibitory concentration (IC50) was greater than 40 µM.
In the case of `Nc1ncc(-c2cccc(Nc3ccccc3)c2)cn1` [FTO-9, 5-(3-(phenylamino)phenyl)pyrimidin-2-amine], the melting point was 230 °C. Also, the IC50 in series [2] amounted to 5.2 µM. Besides, in series [3], the “selectivity between FTO and ALKBH5” value is on record as “distinct preference towards ALKBH5 over FTO”; the IC50 was > 40 µM and 43.8 µM.
`COCCNc1ncc(-c2ccc3nc(C)ccc3c2)cn1` [FTO-19, N-(2-methoxyethyl)-5-(2-methylquinolin-6-yl)pyrimidin-2-amine] came in with a melting point of 230 °C. Also, the IC50 in series [2] turned out to be 53.5 µM. Also, in series [3], the “selectivity between FTO and ALKBH5” value is “equivalent inhibitors towards both demethylases”; the half-maximal inhibitory concentration (IC50) turned out to be 25.2 µM.
As to `Nc1ccn([C@@H]2O[C@H](CO)[C@@H](O)[C@@H]2O)c(=O)n1` [Cytarabine], in series [1] (Leukemia), the concentration for a half-maximal effect (EC50) was 0.25 to 3.5 µM.
Consider `Cc1noc(C)c1-c1cc(Cl)c(Nc2ccccc2C(=O)O)c(Cl)c1` [FB23], for which the IC50 in series [4] was greater than 40 µM.
The molecule `Nc1ncc(-c2ccc3cc(O)ccc3c2)cn1` [FTO-10, 6-(2-aminopyrimidin-5-yl)naphthalen-2-ol] gave a melting point of 230 °C. For the same molecule, the IC50 in series [2] turned out to be 36.1 µM. Also, the size of tumorospheres entry in series [5] is “significant reduction in size of the tumorospheres”. Moreover, in series [3], the “selectivity between FTO and ALKBH5” value is given as “equivalent inhibitors towards both demethylases”; the half-inhibitory concentration (IC50) stood at 48.1 µM.
`O=C1[O][Pt]2([NH][C@@H]3CCCC[C@H]3[NH]2)[O]C1=O` [oxalplatin, oxaliplatin]: the EC50 is 2 to 20 µM in series [1] (Colon), 37 µM in series [1] (Esophagoel) and 3.5 to 10 µM in series [1] (Pancreatic).
On to `Nc1ccn([C@@H]2O[C@H](CO)[C@@H](O)C2(F)F)c(=O)n1` [gemcitabine], for which the EC50 in series [1] (Pancreatic) is less than 1 µM.
`COc1ccc2cc(-c3cnc(OC)nc3)ccc2c1` [FTO-8, 2-methoxy-5-(6-methoxynaphthalen-2-yl)pyrimidine] came in with a melting point of 230 °C. The IC50 in series [2] turned out to be 16.4 µM. Moreover, the “selectivity between FTO and ALKBH5” value in series [3] was “equivalent inhibitors towards both demethylases”.
As for `N.N.[Cl][Pt][Cl]` [cisplatin], the half-maximal effective concentration (EC50) in series [1] (Breast) is 5 µM; in series [1] (Esophagoel), 8 µM; in series [1] (Gastric) it was 13.5 to 25 µM; in series [1] (Ovarian), 2 to 40 µM; in series [1] (Pancreatic) it was 20 to 26 µM.
For `COc1ncc(-c2ccc3nc(C)ccc3c2)cn1` [FTO-11, 6-(2-methoxypyrimidin-5-yl)-2-methylquinoline], the melting point was 230 °C. Also, the IC50 in series [2] is 19.5 µM. Besides, the size of tumorospheres result in series [5] is reported as “significant reduction in size of the tumorospheres”. For the same molecule, in series [3], the “selectivity between FTO and ALKBH5” value is recorded as “equivalent inhibitors towards both demethylases”; the IC50 was 11.3 µM.
The molecule `COc1ccc2cc(-c3cnc(N)nc3)ccc2c1` [FTO-12, 5-(6-methoxynaphthalen-2-yl)pyrimidin-2-amine] registered a melting point of 230 °C. For the same molecule, in series [2], the “inhibition of ALKBH5” value is reported as “no measurable inhibition” and the half-inhibitory concentration (IC50) was greater than 40 µM. In addition, the size of tumorospheres entry in series [5] is on record as “significant reduction in size of the tumorospheres”. Also, in series [3], the “selectivity between FTO and ALKBH5” value is given as “five-fold or higher”; the IC50 came out at 18.3 ± 1.7 µM.
On to `CS(=O)(=O)CCNCc1ccc(-c2ccc3ncnc(Nc4ccc(OCc5cccc(F)c5)c(Cl)c4)c3c2)o1` [lapatinib], for which the EC50 in series [1] (Breast) was 137 µM.
On to `Nc1ncc(-c2cccc(OCc3ccccc3)c2)cn1` [FTO-13, 5-(3-(benzyloxy)phenyl)pyrimidin-2-amine], for which the melting point amounted to 230 °C. Moreover, in series [2], the IC50 came to 14.9 µM. In series [3], the “selectivity between FTO and ALKBH5” value is listed as “distinct preference towards ALKBH5 over FTO”; the IC50 came out at 36.7 µM.
Consider `O=c1[nH]cc(F)c(=O)[nH]1` [5FU, fluorouracil], for which the 50% effective concentration (EC50) is 2 to 10 µM in series [1] (Colon) and 28.8 µM in series [1] (Gastric).
On to `Oc1ccc2cc(-c3cncnc3)ccc2c1` [FTO-1, 6-(pyrimidin-5-yl)naphthalen-2-ol], for which the melting point amounted to 230 °C. In series [2], the “inhibition of ALKBH5” value was “no measurable inhibition” and the IC50 was greater than 40 µM. For the same molecule, in series [3], the half-inhibitory concentration (IC50) stood at 41.7 µM.
In the same order, the values of `Cc1ccc2cc(-c3cncnc3)ccc2n1` [FTO-7, 2-methyl-6-(pyrimidin-5-yl)quinoline] are 230 °C, “no measurable inhibition”, greater than 40 µM and 29.1 µM.

The values above are taken from patent publication US20230322715A1, “BROAD SPECTRUM ANTI-CANCER COMPOUNDS” (The Regents of the University of California, priority 2019, published 2023).
